We go through four molecules from US20240033228A1, “MESOPOROUS NANOPARTICLES SYSTEM TO INCREASE THE BIOFILM ERADICATION ACTIVITY BY MEANS OF THE CARRYING AND THE ADMINISTRATION OF AT LEAST ONE ACTIVE INGREDIENT AND RELATED PRODUCTION METHOD” (Brenta S.r.l., priority 2020, published 2024).

≈ marks a conversion by molar mass, not a printed value.

The conditions of data set [1]: water; cited from earlier work.
The conditions of data set [2]: footnote a not given; cited from earlier work.
For a further data set, the system named is K. pneumoniae. Description: Plate antimicrobial tests. It is filed as cell-based. The note with it: plate test; strain not given. As to the method: (§1) Plate antimicrobial tests were conducted to verify the inactivity of the nanoparticles and to confirm that the antibacterial activity is linked to being loaded with at least one API. The negative control corresponds to S. aureus and K. pneumoniae without API.

A further data set relates to S. aureus. Put plainly: Plate antimicrobial tests. The data set is classed as cell-based. The note with it: plate test; strain not given. As to the method:
as §1

A further data set deals with K. pneumoniae biofilm. Description: Biofilm eradication test (MBEC assay with Calgary Biofilm Device). The data set is classed as cell-based, Klebsiella pneumoniae. As to the method:
The eradication tests were performed by adding free or loaded and/or supported API after the maturation of a biofilm for 24 hours. VCN was tested against S. aureus and NTF against […]. […] The log reduction was calculated according to the following formula: Log reduction (LR)=Log10(mean number of CPUs without […] number of CFUs after treatment), where CFUs are Colony Formation Units. Correspondingly, the eradication percentage P was calculated according to the following formula: […] Testing was performed by MBEC assay with Calgary Biofilm Device.

The test system of another data set is S. aureus biofilm. Described as above. It is filed as cell-based, Staphylococcus aureus. The method, then: The eradication tests were performed by adding free or loaded and/or supported API after the maturation of a biofilm for 24 hours.
VCN was tested against S. aureus and NTF against T. pneumoniae.
The log reduction was calculated according to the following formula:
Log reduction (LR)=Log10(mean number of CPUs without reatment)/(mean number of CFUs after treatment), where CFUs are Colony Formation Units.
Correspondingly, the eradication percentage P was calculated according to the following formula: […]
Testing was performed by MBEC assay with Calgary Biofilm Device.

In general, LogP refers to the decadic logarithm of the partition coefficient of the neutral form, usually between octanol and water. With `COc1ccc2c(c1)c(CC(=O)O)c(C)n2C(=O)c1ccc(Cl)cc1` [INDM], the “Solubility H2O” value in data set [1] is 80 µg/mL (≈ 224 µM). The LogP in data set [2] was 4.27.

Take `CC(=O)N[C@@H](CS)C(=O)O` [NAC, N-acetyl-L-cysteine]: the “concentration below which no antibacterial activity is exhibited” value in the data set with K. pneumoniae and in the data set with S. aureus was 1 to 2 mg/mL in each case. Further, the LogP in data set [2] is listed as −0.03.

In the case of `O=C1CN(/N=C/c2ccc([N+](=O)[O-])o2)C(=O)N1` [NTF, Nitrofurantoin], the “Log Reduction Log (CFU/ml) ± SD” value in the data set with K. pneumoniae biofilm (K. pneumoniae preformed biofilm (24 hours), highest concentration tested) is given as 2.5 ± 1.0 Log (CFU/ml). Moreover, the “P (%) eradication percentage” value in the data set on K. pneumoniae biofilm (K. pneumoniae preformed biofilm, P=[1−10^−LR]*100) worked out at 99.7%. In addition, the “Solubility H2O” value in data set [1] was 80 µg/mL (≈ 336 µM).

In the case of `CN[C@H](CC(C)C)C(=O)N[C@H]1C(=O)N[C@@H](CC(N)=O)C(=O)N[C@H]2C(=O)N[C@H]3C(=O)N[C@H](C(=O)N[C@H](C(=O)O)c4cc(O)cc(O)c4-c4cc3ccc4O)[C@H](O)c3ccc(c(Cl)c3)Oc3cc2cc(c3O[C@@H]2O[C@H](CO)[C@@H](O)[C@H](O)[C@H]2O[C@H]2C[C@](C)(N)[C@H](O)[C@H](C)O2)Oc2ccc(cc2Cl)[C@H]1O` [VCN, vancomycin], the “Solubility H2O” value in data set [1] was over 50000 µg/mL. For the same molecule, the “Log Reduction Log (CFU/ml) ± SD” value with S. aureus biofilm (S. aureus preformed biofilm (24 hours), highest concentration tested) is reported as 2.0 ± 0.4 Log (CFU/ml). Besides, the “P (%) eradication percentage” value in the data set with S. aureus biofilm (S. aureus preformed biofilm, P=[1−10^−LR]*100) is 99.0%.
